Results on 2 compounds are retold here after paper PMC9939320 (Acta Pharmaceutica Sinica. B, 2022).

Each structure is given as a SMILES string.

The series can be described thus: cytotoxicity. It is filed as cell-based.

In general, CC50 refers to the concentration giving 50% cytotoxicity. Low values mean harm at low concentration, high ones better tolerance by the cells. With `CC1=CC[C@@H]2[C@]34CC[C@](O)(OC3)C(C)(C)[C@@H]4CC[C@@]2(C)[C@@]12Oc1cc(-c3cccnc3)oc(=O)c1[C@@H]2O` [Compound 8, decaturin B], the cytotoxic concentration (CC50) is more than 100 µM. Next, `NC(=O)c1ncn([C@@H]2O[C@H](CO)[C@@H](O)[C@H]2O)n1` [Ribavirin]: more than 100 µM.
